Test results reported in patent US20260259169A1, “BETA-LACTAMASE SUBSTRATE COMPOUNDS AND ELECTROCHEMICAL DETECTION METHODS USING THEM” (priority 2023, published 2026).
Like-named read-outs stand apart in the source and are kept apart here.

Tests used:
KPC = KPC (Klebsiella pneumoniae, UniProt Q9F663); experiment: Amperometric measurement of oxidation current with KPC in TPTZ buffer; type: biochemical; conditions: for detection of the beta-lactamases (oxidation current): KPC concentrations detected: succinate buffer pH 5.5, KPC 239.4, 59.85, 9.975 and 4.985 ng/ml; for detection of the beta-lactamases (oxidation current): KPC concentrations detected / detection of the beta-lactamase concentration of 9.975 ng/mL / detection of the lowest tested concentration of KPC / detection of the highest concentration of KPC: 30 minutes at 37° C.; for detection of the beta-lactamase concentration of 9.975 ng/mL: KPC 9.975 ng/mL; for detection of the lowest tested concentration of KPC / detection of the highest concentration of KPC: 6.0 mM substrate; for detection of the lowest tested concentration of KPC: KPC 59.85 ng/ml; for detection of the highest concentration of KPC: KPC 239.4 ng/ml
Description: A medium comprising 1.2 mM of substrate in a succinate buffer of pH 5.5 was prepared for each of the 8 beta-lactamase substrate compounds (7 inventive ones and the HMRZ-86 reference one).
4 different samples to be analyzed were prepared, each comprising KPC as beta-lactamase in a standard 2,4,6-tri-2-pyridinyl-1,3,5-triazine (TPTZ) buffer but in different concentrations: 239.4, 59.85, 9.975 and 4.985 ng/ml (ng of KPC per mL of TPTZ buffer). The two first concentrations of KPC aim to determine the capacity of the derivative to detect the presence of beta-lactamase whereas the two lowest concentrations aim to address the limit of detection.
Each of the […] (in other words 32 combinations) and incubated for 30 minutes at 37° C. Next, an amperometric measurement was performed on all 32 of the incubated mediums, and the oxidation current was determined. The device used was a Metrohm Dropsens and the electrodes were Metrohm Dropsens SCPE 110 electrodes. The oxidation current is the maximum current value measured between 0.1 V and 0.5 V vs. Ag/AgCl.
To test the impact of the concentration of the beta-lactamase substrate compound on the possibility to detect beta-lactamases, a further medium comprising 2.4 mM of the beta-lactamase substrate compound with R being 2-nitro-4-cyanophenyl was prepared. […] The same four beta-lactamase concentrations as in Example 1 were tested (i.e. the same samples). The incubation and measurement were performed as in Example 1.
A medium comprising 6.0 mM of each substrate in a succinate buffer of pH 5.5 was prepared. 2 different samples to be analyzed were prepared, each comprising KPC as beta-lactamase type in a standard 2,4,6-tri-2-pyridinyl-1,3,5-triazine (TPTZ) buffer, but in different concentrations: 239.4 ng/ml and 59.85 ng/ml, respectively (ng of KPC per mL of TPTZ buffer). Each of the […] was added to each of the 2 mediums (in other words 6 combinations) and incubated for 30 minutes at 37° C. Next, an amperometric measurement was performed on all 6 of the incubated mediums, and the oxidation current was determined. The equipment used was the same as that of Example 1.

[1] = NMR stability study in relation to a 22 mM succinate buffer reference; type: physicochemical
Description: (§1) The stability of the beta-lactamase substrate compounds over time at different temperatures was tested the reference HMRZ-86 of example 1 (at 1.2 mM) and the beta-lactamase substrate compound with R being 2-nitro-4-cyano of Example 1 (at 2.4 mM).
The stability of both beta-lactamase substrate compounds was also tested in relation to a 22 mM succinate buffer reference. […] Contrary to the dimethylformamide (DMF) reference, the degradation in relation to the succinate buffer was similar for both substrate compounds, with the first degradation starting after 2 weeks at both temperatures.

[2] = system: bacteria strains that produce KPC/OXA-48; experiment: Amperometric detection in blood culture; type: cell-based; conditions: 2.4 mM versus HMRZ-86 1.2 mM
Description: (§2) The possibility of the beta-lactamase substrate compounds to detect bacteria strains producing different beta-lactamases was tested for the reference HMRZ-86 of example 1 (at 1.2 mM) and the beta-lactamase substrate compound with R being 2-nitro-4-cyano of Example 1 (at 2.4 mM). […] Consequently, amperometric voltammetry of the negative control with ATCC should give an oxidation current of 0 nA for the measurement to be valid.

[3] = system: bacteria strains that produce VIM type; experiment: Amperometric detection in blood culture; type: cell-based; conditions: 2.4 mM versus HMRZ-86 1.2 mM
Description: as §2
The beta-lactamase with group β being CF3 (6.0 mM), as well as the reference HMRZ-86 (1.2 mM) were also tested with blood cultures comprising bacteria strains producing the carbapenemase KPC type, the metallo-beta-lactamase VIM type and the metallo-beta-lactamase NDM type, as well as a blood culture comprising no bacteria strains producing beta-lactamases (negative control ATCC).

[4] = NMR stability study in relation to a dimethylformamide (DMF) reference; type: physicochemical
Description: More particularly, when the degradation is determined by means of NMR measurements, a first sample comprising the beta-lactamase substrate compound according to the present disclosure and a second sample comprising the reference, e.g. DMF, are heated or cooled to a predefined temperature, after which the NMR measurement is performed on both samples (measurement at time=0). The same measurement is repeated on the samples after a predefined time (time=x), while their temperature is kept constant at the predefined temperature from time=0 to time=x. The difference of the integration of NMR measurement signals of both samples is determined by comparing between time=0 and time=x, thereby allowing to define the degree (percentage) of degradation of the beta-lactamase substrate compound at time=x.
as §1
The stability was tested by a NMR stability study. The degradation was measured by measuring the evolution of the integration of NMR measurement signals of the molecule in relation to a dimethylformamide (DMF) reference. The stability of the beta-lactamase substrate compound is expressed by the percentage of degradation in function of time.
The stability of all 3 beta-lactamase substrate compounds (R being 4-cyanophenyl, group β being H, CH3 and CF3, respectively), as well as the beta-lactamase having the same group R and a group β according to formula II was tested at 20° C. in DMF as reference.

OXA-58 = experiment: Amperometric detection of beta-lactamase type producing bacteria strains; type: cell-based; conditions: 6.0 mM substrate, HMRZ-86 1.2 mM; qualitative
Description: (§3) The possibility to detect different beta-lactamase type producing bacteria strains was also tested. As reference, a reference medium comprising 1.2 mM beta-lactamase substrate compound HMRZ-86 was prepared as well.

CTXM = experiment: as above; type: cell-based; conditions: 6.0 mM substrate, HMRZ-86 1.2 mM; qualitative
Description: as §3

OXA-48 = experiment: as above; type: cell-based; conditions: 6.0 mM substrate, HMRZ-86 1.2 mM; qualitative
Description: as §3

OXA-40 = experiment: as above; type: cell-based; conditions: 6.0 mM substrate, HMRZ-86 1.2 mM; qualitative
Description: as §3

SMILES: CC(C)(ON=C(C(=O)NC1C(=O)N2C(C(=O)O)=C(C=Cc3ccc(C#N)cc3C#N)CSC12)c1csc(N)n1)C(=O)O (stereo not drawn) [2,4-dicyano]
- detection of the beta-lactamases (oxidation current): KPC concentrations detected (KPC; 1.2 mM substrate): only the 2 highest concentrations were detected

SMILES: CC(C)(ON=C(C(=O)NC1C(=O)N2C(C(=O)O)=C(C=Cc3ccc(C#N)cc3[N+](=O)[O-])CSC12)c1csc(N)n1)C(=O)O (stereo not drawn) [2-nitro-4-cyano]
- time at which the first degradation starts ([1]; 4° C.): 2 weeks
- time at which the first degradation starts ([1]; 20° C.): 2 weeks
- oxidation current compared with HMRZ-86 [2]: significantly higher
- oxidation current compared with HMRZ-86 [3]: significantly higher
- detection of the beta-lactamases (oxidation current): KPC concentrations detected (KPC; 1.2 mM substrate): all 4 concentrations
- oxidation current compared with 1.2 mM HMRZ-86 reference (KPC; 2.4 mM substrate, 4 KPC concentrations): in line with these of the 1.2 mM HMRZ-86 reference
- oxidation current compared with 1.2 mM HMRZ-86 reference, 2 highest beta-lactamase concentrations (KPC; 2.4 mM substrate, KPC 239.4 and 59.85 ng/ml): higher than the reference
- oxidation current on increasing the substrate concentration (KPC; 2.4 mM versus 1.2 mM substrate, 4 KPC concentrations): significantly increases the oxidation current

SMILES: CC(C)(ON=C(C(=O)NC1C(=O)N2C(C(=O)O)=C(C=Cc3ccc([N+](=O)[O-])c([N+](=O)[O-])c3)CSC12)c1csc(N)n1)C(=O)O (stereo not drawn) [3,4-dinitrophenyl]
- detection of the beta-lactamase concentration of 9.975 ng/mL (KPC; 1.2 mM substrate): could detect

SMILES: CC(C)(ON=C(C(=O)NC1C(=O)N2C(C(=O)O)=C(C=Cc3cc([N+](=O)[O-])cc([N+](=O)[O-])c3)CSC12)c1csc(N)n1)C(=O)O (stereo not drawn) [3,5-dinitrophenyl]
- detection of the beta-lactamase concentration of 9.975 ng/mL (KPC; 1.2 mM substrate): this was not the case

SMILES: CC(C)(ON=C(C(=O)NC1C(=O)N2C(C(=O)O)=C(C=Cc3ccc(C#N)cc3)CSC12)c1csc(N)n1)C(=O)O (stereo not drawn) [4-cyanophenyl]
- degradation ([4]; 20° C., up to 26 weeks, DMF reference): no signs of degradation
- oxidation current, compared among R groups with a single moiety at the para-position (KPC; 1.2 mM substrate, 4 KPC concentrations, FIG. 2): highest oxidation currents

SMILES: CC(=O)NC1C(=O)N2C(C(=O)O)=C(C=Cc3ccc(C#N)cc3)CSC12 (stereo not drawn) [CH3]
- time of first signs of degradation ([4]; 20° C., DMF reference, up to 26 weeks): 1 weeks
- detection of the lowest tested concentration of KPC (KPC): only the “H” and “CF3” groups are capable to detect the lowest tested concentration
- detection of the highest concentration of KPC (KPC): capable to detect
- detection (oxidation current) (OXA-58): detect OXA-48 type only
- detection (oxidation current) (CTXM): detect OXA-48 type only
- detection (oxidation current) (OXA-48): detect OXA-48 type only
- detection (oxidation current) (OXA-40): detect OXA-48 type only

SMILES: N#Cc1ccc(C=CC2=C(C(=O)O)N3C(=O)C(NC=O)C3SC2)cc1 (stereo not drawn) [H]
- time of first signs of degradation [4]: 13 weeks
- detection of the lowest tested concentration of KPC (KPC): capable to detect
- detection of the highest concentration of KPC (KPC): capable to detect
- detection (oxidation current) (OXA-58): capable of detecting
- detection (oxidation current) (CTXM): capable of detecting
- detection (oxidation current) (OXA-48): capable of detecting
- detection (oxidation current) (OXA-40): capable of detecting
